Source: patent US9624182B2, “Compounds as lysophosphatidic acid receptor antagonists” (Amira Pharmaceuticals, Inc., priority 2009, dated 2017)

Assays:
[1] = target: T1, human LPA1 (Homo sapiens, UniProt Q92633); experiment: LPA1 calcium flux assay; assay type: cell-based; conditions: CHO cells expressing human LPA1, stimulated with 10 nM LPA; read-out: HLPA1 Ca Flux IC50
T1 construct: the full-length cDNA for human LPA1 was obtained by PCR of the reverse transcription reaction; expressed in transfected cells
T1 sequence (Q92633 whole entry): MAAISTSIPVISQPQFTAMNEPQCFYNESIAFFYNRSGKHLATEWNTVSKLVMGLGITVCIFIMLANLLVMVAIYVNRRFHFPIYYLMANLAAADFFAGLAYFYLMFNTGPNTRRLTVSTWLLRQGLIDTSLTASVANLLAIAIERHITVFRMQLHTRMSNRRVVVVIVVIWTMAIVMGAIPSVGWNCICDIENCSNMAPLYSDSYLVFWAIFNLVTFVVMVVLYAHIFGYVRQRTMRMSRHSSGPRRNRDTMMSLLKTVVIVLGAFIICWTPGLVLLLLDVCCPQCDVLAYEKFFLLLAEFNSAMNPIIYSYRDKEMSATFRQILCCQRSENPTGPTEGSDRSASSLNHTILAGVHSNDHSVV
Method in brief: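 CHO cells stably expressing cloned human LPA1, serum-starved overnight, loaded with Calcium 4 dye 1 h at 37 °C in HBSS/20 mM Hepes with 0.3% fatty-acid-free HSA. Compounds preincubated 30 min at room temperature, then cells stimulated with 10 nM LPA; intracellular Ca2+ read by fluorescence. IC50 from titration curves.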

[2] = tested on: A2058 human melanoma cells; experiment: LPA1 chemotaxis assay; assay type: cell-based; conditions: LPA 100 nM, read-out: IC50, inhibition of LPA-driven chemotaxis
Procedure: Chemotaxis of the A2058 human melanoma cells was measured using the Neuroprobe ChemoTx® System plates (8 μm pore size, 5.7 mm diameter sites). The filter sites were coated with 0.001% fibronectin (Sigma) in 20 mM Hepes, pH 7.4 and allowed to dry. A2058 cells were serum-starved for 24 hours, then harvested with Cell Stripper and resuspended in DMEM containing 0.1% fatty-acid-free bovine serum albumin (BSA) to a concentration of 1×10^6/ml. Cells were mixed with an equal volume of test compound (2×) in DMEM containing 0.1% fatty-acid-free BSA and incubated at 37° C. for 15 minutes. LPA (100 nM in DMEM containing 0.1% fatty-acid-free BSA) or vehicle was added to each well of the lower chamber and 50 μl of the cell suspension/test compound mix was applied to the upper portion of the ChemoTx plate. Plates were incubated at 37° C. for three hours and then the cells removed from the upper portion by rinsing with PBS and scraping. The filter was dried then stained with HEMA 3 Staining System (Fisher Scientific). The absorbance of the filter was read at 590 nm and IC50s were determined using Symyx Assay Explorer.

[3] = tested on: nerve-injured mice; conditions: pretreatment; cited from earlier work
[4] = tested on: human foetal lung fibroblasts; conditions: BAL obtained from IPF patients; cited from earlier work
[5] = tested on: highly peritoneal metastatic pancreatic cancer cell line; conditions: cited from earlier work
[6] = tested on: pancreatic cancer cell lines; conditions: LPA and peritoneal fluid (ascites) from pancreatic cancer patients; cited from earlier work
[7] = tested on: UUO mice; conditions: UUO mice treated with antagonist; cited from earlier work
[8] = tested on: mouse epithelial renal cell line, MCT; conditions: MCT cells, co-treatment with LPA; cited from earlier work

Structure (SMILES)	IC50 [1] [µM]	IC50 [2] [µM]	other results
Cc1noc(-c2ccc(-c3ccc(C4(C(=O)O)CC4)cc3)cc2)c1C(O)CCCc1ccccc1 (single isomer, unassigned) [Compound 1-155, 1-{4′-[4-(1-Hydroxy-4-phenyl-butyl)-3-methyl-isoxazol-5-yl]-biphenyl-4-yl}-cyclopropanecarboxylic acid]	< 0.3	< 0.1	–
Cc1noc(-c2ccc(-c3ccc(C4(C(=O)O)CC4)cc3)cc2)c1C(O)C(F)(F)CCc1ccccc1 (single isomer, unassigned) [Compound 1-255, 1-{4′-[4-(2,2-Difluoro-1-hydroxy-4-phenyl-butyl)-3-methyl-isoxazol-5-yl]-biphenyl-4-yl}-cyclopropanecarboxylic acid]	< 0.3	< 0.1	–
Cc1noc(-c2ccc(-c3ccc(C4(C(=O)O)CC4)cc3)cc2)c1C(O)CCCc1ccccc1 (centres unmarked) [Compound 1-116, 1-{4′-[4-(1-Hydroxy-4-phenyl-butyl)-3-methyl-isoxazol-5-yl]-biphenyl-4-yl}-cyclopropanecarboxylic acid]	–	< 0.1	–
Cc1noc(-c2ccc(-c3ccc(C4(C(=O)O)CC4)cc3)cc2)c1C(O)C(F)(F)CCc1ccccc1 (centres unmarked) [Compound 1-178, 1-{4′-[4-(2,2-Difluoro-1-hydroxy-4-phenyl-butyl)-3-methyl-isoxazol-5-yl]-biphenyl-4-yl}-cyclopropanecarboxylic acid]	–	< 0.1	–
C[C@@H](N)[C@H]1CC[C@H](C(=O)Nc2ccncc2)CC1 [Compound Y-27632]	–	–	allodynia and hyperalgesia [3]: completely abolished
Cc1noc(-c2ccc(CSCCC(=O)O)cc2)c1NC(=O)OC(C)c1ccccc1Cl (centres unmarked) [Ki16425]	–	–	chemotaxis of human foetal lung fibroblasts induced by BAL from IPF patients [4]: blocked; LPA-induced and ascites-induced invasion activity [5]: blocked; in vitro migration in response to LPA and ascites [6]: effectively blocked; development of renal fibrosis in UUO mice [7]: closely resembled the LPA1 (−/−) mice; LPA-induced increase in CTGF expression [8]: almost completely suppressed

More lines, main results first:

IC50 [1] [µM]	IC50 [2] [µM]	Structure (SMILES)	other results
1 to 50	–	Cc1noc(-c2ccc(-c3ccc(C4(C(=O)NS(=O)(=O)C5CC5)CC4)cc3)cc2)c1NC(=O)NS(=O)(=O)C1CC1 [Compound 2-6, Cyclopropanesulfonic acid (1-{4′-[4-(3-cyclopropylsulfonyl-ureido)-3-methyl-isoxazol-5-yl]-biphenyl-4-yl}-cyclopropanecarbonyl)-amide]	–
< 0.3	–	Cc1cccc(SCC(O)c2c(C)noc2-c2ccc(-c3ccc(C4(C(=O)NS(C)(=O)=O)CC4)cc3)cc2)c1 (centres unmarked) [Compound 2-13, N-(1-{4′-[4-(1-Hydroxy-2-m-tolylsulfanyl-ethyl)-3-methyl-isoxazol-5-yl]-biphenyl-4-yl}-cyclopropanecarbonyl)-methanesulfonamide]	–
0.3 to 1	–	COc1cccc(SCC(O)c2c(C)noc2-c2ccc(-c3ccc(C4(C(=O)NS(C)(=O)=O)CC4)cc3)cc2)c1 (centres unmarked) [Compound 2-14, N-[1-(4′-{4-[1-Hydroxy-2-(3-methoxy-phenylsulfanyl)-ethyl]-3-methyl-isoxazol-5-yl}-biphenyl-4-yl)-cyclopropanecarbonyl]-methanesulfonamide]	–
0.3 to 1	–	Cc1noc(-c2ccc(-c3ccc(C4(CC(=O)NS(C)(=O)=O)CC4)cc3)cc2)c1C(CCCc1ccccc1)OC(=O)NS(C)(=O)=O (centres unmarked) [Compound 2-15, N-Sulfonylmethyl carbamic acid 1-(5-{4′-[1-(2-methanesulfonylamino-2-oxo-ethyl)-cyclopropyl]-biphenyl-4-yl}-3-methyl-isoxazol-4-yl)-4-phenyl-butyl ester]	–
< 0.3	–	Cc1noc(-c2ccc(-c3ccc(C4(CC(=O)NS(C)(=O)=O)CC4)cc3)cc2)c1C(O)CCCc1ccccc1 (centres unmarked) [Compound 2-16, N-[2-(1-{4′-[4-(1-Hydroxy-4-phenyl-butyl)-3-methyl-isoxazol-5-yl]-biphenyl-4-yl}-cyclopropyl)-acetyl]-methanesulfonamide]	–
